# Tests used:
# Type in all cases: in vivo
# Solanum nigrum (SOLNI) [1] = test: Post-emergence herbicidal glasshouse test; conditions: post-emergence (sprayed after 8 days cultivation), 1000 g/ha, evaluated after 13 days; 100=total damage to plant, 0=no damage to plant
# Experimental: (§1) Seeds of a variety of test species were sown in standard soil in pots (Alopecurus myosuroides (ALOMY), Setaria faberi (SETFA), Echinochloa crus-galli (ECHCG), Solanum nigrum (SOLNI) and Amaranthus retoflexus (AMARE)). After cultivation for one day (pre-emergence) or after 8 days cultivation (post-emergence) under controlled conditions in a glasshouse (at 24/16° C., day/night; 14 hours light; 65% humidity), the plants were sprayed with an aqueous spray solution derived from the formulation of the technical active ingredient in acetone/water (50:50) solution containing 0.5% Tween 20 (polyoxyethelyene sorbitan monolaurate, CAS RN 9005-64-5). Compounds were applied at 1000 g/ha. The test plants were then grown in a glasshouse under controlled conditions in a glasshouse (at 24/16° C., day/night; 14 hours light; 65% humidity) and watered twice daily. After 13 days for pre and post-emergence, the test was evaluated (100=total damage to plant; 0=no damage to plant).
# [2] = system: Alopecurus myosuroides (ALOMY); test: Post-emergence herbicidal glasshouse test; conditions: post-emergence (sprayed after 8 days cultivation), 1000 g/ha, evaluated after 13 days; 100=total damage to plant, 0=no damage to plant
# Experimental: as §1
# Setaria faberi (SETFA) [3] = test: Post-emergence herbicidal glasshouse test; conditions: post-emergence (sprayed after 8 days cultivation), 1000 g/ha, evaluated after 13 days; 100=total damage to plant, 0=no damage to plant
# Experimental: as §1
# [4] = system: Echinochloa crus-galli (ECHCG); test: Post-emergence herbicidal glasshouse test; conditions: post-emergence (sprayed after 8 days cultivation), 1000 g/ha, evaluated after 13 days; 100=total damage to plant, 0=no damage to plant
# Experimental: as §1
# [5] = system: Amaranthus retoflexus (AMARE); test: Post-emergence herbicidal glasshouse test; conditions: post-emergence (sprayed after 8 days cultivation), 1000 g/ha, evaluated after 13 days; 100=total damage to plant, 0=no damage to plant
# Experimental: as §1
# Solanum nigrum (SOLNI) [6] = test: Pre-emergence herbicidal glasshouse test; conditions: pre-emergence (sprayed after one day cultivation), 1000 g/ha, evaluated after 13 days; 100=total damage to plant, 0=no damage to plant
# Experimental: as §1
# [7] = system: Alopecurus myosuroides (ALOMY); test: Pre-emergence herbicidal glasshouse test; conditions: pre-emergence (sprayed after one day cultivation), 1000 g/ha, evaluated after 13 days; 100=total damage to plant, 0=no damage to plant
# Experimental: as §1
# Setaria faberi (SETFA) [8] = test: Pre-emergence herbicidal glasshouse test; conditions: pre-emergence (sprayed after one day cultivation), 1000 g/ha, evaluated after 13 days; 100=total damage to plant, 0=no damage to plant
# Experimental: as §1
# [9] = system: Echinochloa crus-galli (ECHCG); test: Pre-emergence herbicidal glasshouse test; conditions: pre-emergence (sprayed after one day cultivation), 1000 g/ha, evaluated after 13 days; 100=total damage to plant, 0=no damage to plant
# Experimental: as §1
# [10] = system: Amaranthus retoflexus (AMARE); test: Pre-emergence herbicidal glasshouse test; conditions: pre-emergence (sprayed after one day cultivation), 1000 g/ha, evaluated after 13 days; 100=total damage to plant, 0=no damage to plant
# Experimental: as §1
smiles,measurement,setting,value
"COCCN(C)c1nc2nc(C(F)(F)F)c(C(=O)C3C(=O)CCCC3=O)cc2cc1F [Compound 1.80, 2-[6-fluoro-7-(2-methoxyethylmethylamino)-2-trifluoromethyl-[1,8]-naphthyridine-3-carbony]-cyclohexane-1,3-dione]","POST Application SOLNI, damage to plant",Solanum nigrum (SOLNI) [1],80
same,"POST Application ALOMY, damage to plant",[2],80
same,"POST Application SETFA, damage to plant",Setaria faberi (SETFA) [3],80
same,"POST Application ECHCG, damage to plant",[4],90
same,"POST Application AMARE, damage to plant",[5],80
same,"PRE Application SOLNI, damage to plant",Solanum nigrum (SOLNI) [6],100
same,"PRE Application ALOMY, damage to plant",[7],80
same,"PRE Application SETFA, damage to plant",Setaria faberi (SETFA) [8],100
same,"PRE Application ECHCG, damage to plant",[9],100
same,"PRE Application AMARE, damage to plant",[10],100
CCCCC(C)Oc1ccc2cc(C(=O)C3C(=O)CCCC3=O)c(C(F)(F)F)nc2n1 (centres unmarked) [Compound 1.56],"POST Application SOLNI, damage to plant",Solanum nigrum (SOLNI) [1],80
same,"POST Application ALOMY, damage to plant",[2],30
same,"POST Application SETFA, damage to plant",Setaria faberi (SETFA) [3],80
same,"POST Application ECHCG, damage to plant",[4],70
same,"POST Application AMARE, damage to plant",[5],70
same,"PRE Application SOLNI, damage to plant",Solanum nigrum (SOLNI) [6],100
same,"PRE Application ALOMY, damage to plant",[7],20
same,"PRE Application SETFA, damage to plant",Setaria faberi (SETFA) [8],90
same,"PRE Application ECHCG, damage to plant",[9],80
same,"PRE Application AMARE, damage to plant",[10],40
"O=C(Cn1c(=O)ccc2cc(C(=O)C3C(=O)CCCC3=O)c(C(F)(F)F)nc21)c1ccccc1 [Compound 2.6, 2-{8-(2-phenyl-2-oxo-ethyl)-7-oxo-7,8-dihydro-2-trifluoromethyl-[1,8]-naphthyridine-3-carbony}-cyclohexane-1,3-dione]","POST Application SOLNI, damage to plant",Solanum nigrum (SOLNI) [1],90
same,"POST Application ALOMY, damage to plant",[2],40
same,"POST Application SETFA, damage to plant",Setaria faberi (SETFA) [3],70
same,"POST Application ECHCG, damage to plant",[4],70
same,"POST Application AMARE, damage to plant",[5],90
same,"PRE Application SOLNI, damage to plant",Solanum nigrum (SOLNI) [6],90
same,"PRE Application ALOMY, damage to plant",[7],20
same,"PRE Application SETFA, damage to plant",Setaria faberi (SETFA) [8],10
same,"PRE Application ECHCG, damage to plant",[9],40
same,"PRE Application AMARE, damage to plant",[10],60
"COCCn1c(=O)ccc2cc(C(=O)C3C(=O)CCCC3=O)c(C(F)(F)F)nc21 [Compound 2.22, 2-{8-(2-Methoxyethyl)-7-oxo-7,8-dihydro-2-trifluoromethyl-[1,8]-naphthyridine-3-carbony}-cyclohexane-1,3-dione]","POST Application SOLNI, damage to plant",Solanum nigrum (SOLNI) [1],90
same,"POST Application ALOMY, damage to plant",[2],80
same,"POST Application SETFA, damage to plant",Setaria faberi (SETFA) [3],80
same,"POST Application ECHCG, damage to plant",[4],80
same,"POST Application AMARE, damage to plant",[5],80
same,"PRE Application SOLNI, damage to plant",Solanum nigrum (SOLNI) [6],100
same,"PRE Application ALOMY, damage to plant",[7],100
same,"PRE Application SETFA, damage to plant",Setaria faberi (SETFA) [8],100
same,"PRE Application ECHCG, damage to plant",[9],100
same,"PRE Application AMARE, damage to plant",[10],100
"O=C1CCCC(=O)C1C(=O)c1cc2ccc(=O)n(CCC=C(F)F)c2nc1C(F)(F)F [Compound 2.2, 2-{8-(4,4-difluorobut-3-enyl)-7-oxo-7,8-dihydro-2-trifluoromethyl-[1,8]-naphthyridine-3-carbony}-cyclohexane-1,3-dione]","POST Application SOLNI, damage to plant",Solanum nigrum (SOLNI) [1],100
same,"POST Application ALOMY, damage to plant",[2],70
same,"POST Application SETFA, damage to plant",Setaria faberi (SETFA) [3],90
same,"POST Application ECHCG, damage to plant",[4],90
same,"POST Application AMARE, damage to plant",[5],100
same,"PRE Application SOLNI, damage to plant",Solanum nigrum (SOLNI) [6],90
same,"PRE Application ALOMY, damage to plant",[7],60
same,"PRE Application SETFA, damage to plant",Setaria faberi (SETFA) [8],90
same,"PRE Application ECHCG, damage to plant",[9],90
same,"PRE Application AMARE, damage to plant",[10],70
Cc1cc(Cn2c(=O)ccc3cc(C(=O)C4C(=O)CCCC4=O)c(C(F)(F)F)nc32)no1 [Compound 2.1],"POST Application SOLNI, damage to plant",Solanum nigrum (SOLNI) [1],90
same,"POST Application ALOMY, damage to plant",[2],90
same,"POST Application SETFA, damage to plant",Setaria faberi (SETFA) [3],90
same,"POST Application ECHCG, damage to plant",[4],80
same,"POST Application AMARE, damage to plant",[5],100
same,"PRE Application SOLNI, damage to plant",Solanum nigrum (SOLNI) [6],90
same,"PRE Application ALOMY, damage to plant",[7],80
same,"PRE Application SETFA, damage to plant",Setaria faberi (SETFA) [8],90
same,"PRE Application ECHCG, damage to plant",[9],90
same,"PRE Application AMARE, damage to plant",[10],90
"C=CCn1c(=O)ccc2cc(C(=O)C3C(=O)CCCC3=O)c(C(F)(F)F)nc21 [Compound 2.14, 2-{8-allyl-7-oxo-7,8-dihydro-2-trifluoromethyl-[1,8]-naphthyridine-3-carbony}-cyclohexane-1,3-dione]","POST Application SOLNI, damage to plant",Solanum nigrum (SOLNI) [1],90
same,"POST Application ALOMY, damage to plant",[2],80
same,"POST Application SETFA, damage to plant",Setaria faberi (SETFA) [3],90
same,"POST Application ECHCG, damage to plant",[4],90
same,"POST Application AMARE, damage to plant",[5],70
same,"PRE Application SOLNI, damage to plant",Solanum nigrum (SOLNI) [6],90
same,"PRE Application ALOMY, damage to plant",[7],40
same,"PRE Application SETFA, damage to plant",Setaria faberi (SETFA) [8],80
same,"PRE Application ECHCG, damage to plant",[9],100
same,"PRE Application AMARE, damage to plant",[10],60
"Cc1ccc2cc(C(=O)C3C(=O)CCCC3=O)c(C(F)(F)Cl)nc2n1 [Compound 1.89, 2-[2-chlorodifluoromethyl-7-methyl [1,8]-naphthyridine-3-carbony]-cyclohexane-1,3-dione]","POST Application SOLNI, damage to plant",Solanum nigrum (SOLNI) [1],90
same,"POST Application ALOMY, damage to plant",[2],70
same,"POST Application SETFA, damage to plant",Setaria faberi (SETFA) [3],80
same,"POST Application ECHCG, damage to plant",[4],90
same,"POST Application AMARE, damage to plant",[5],100
same,"PRE Application SOLNI, damage to plant",Solanum nigrum (SOLNI) [6],100
same,"PRE Application ALOMY, damage to plant",[7],40
same,"PRE Application SETFA, damage to plant",Setaria faberi (SETFA) [8],100
same,"PRE Application ECHCG, damage to plant",[9],100
same,"PRE Application AMARE, damage to plant",[10],100
"Cc1nc2nc(C(F)(F)OCC(F)(F)F)c(C(=O)C3C(=O)CCCC3=O)cc2cc1F [Compound 1.91, 2-[6-fluoro-7-methyl-2[(2,2,2-trifluoroethoxy)difluoromethyl]-[1,8]-naphthyridine-3-carbony]-cyclohexane-1,3-dione]","POST Application SOLNI, damage to plant",Solanum nigrum (SOLNI) [1],90
same,"POST Application ALOMY, damage to plant",[2],40
same,"POST Application SETFA, damage to plant",Setaria faberi (SETFA) [3],80
same,"POST Application ECHCG, damage to plant",[4],80
same,"POST Application AMARE, damage to plant",[5],90
same,"PRE Application SOLNI, damage to plant",Solanum nigrum (SOLNI) [6],100
same,"PRE Application ALOMY, damage to plant",[7],10
same,"PRE Application SETFA, damage to plant",Setaria faberi (SETFA) [8],90
same,"PRE Application ECHCG, damage to plant",[9],100
same,"PRE Application AMARE, damage to plant",[10],100
"CCOCCn1c(=O)ccc2cc(C(=O)C3C(=O)CCCC3=O)c(C(F)(F)F)nc21 [Compound 2.16, 2-{8-(2-ethoxyethyl)-7-oxo-7,8-dihydro-2-trifluoromethyl-[1,8]-naphthyridine-3-carbony}-cyclohexane-1,3-dione]","POST Application SOLNI, damage to plant",Solanum nigrum (SOLNI) [1],90
same,"POST Application ALOMY, damage to plant",[2],90
same,"POST Application SETFA, damage to plant",Setaria faberi (SETFA) [3],90
same,"POST Application ECHCG, damage to plant",[4],90
same,"POST Application AMARE, damage to plant",[5],70
same,"PRE Application SOLNI, damage to plant",Solanum nigrum (SOLNI) [6],90
same,"PRE Application ALOMY, damage to plant",[7],60
same,"PRE Application SETFA, damage to plant",Setaria faberi (SETFA) [8],90
same,"PRE Application ECHCG, damage to plant",[9],90
same,"PRE Application AMARE, damage to plant",[10],90
Cc1nc2nc(C(F)(F)C(F)(F)F)c(C(=O)C3C(=O)CCCC3=O)cc2cc1F [Compound 1.94],"POST Application SOLNI, damage to plant",Solanum nigrum (SOLNI) [1],90
same,"POST Application ALOMY, damage to plant",[2],60
same,"POST Application SETFA, damage to plant",Setaria faberi (SETFA) [3],80
same,"POST Application ECHCG, damage to plant",[4],80
same,"POST Application AMARE, damage to plant",[5],100
same,"PRE Application SOLNI, damage to plant",Solanum nigrum (SOLNI) [6],90
same,"PRE Application ALOMY, damage to plant",[7],20
same,"PRE Application SETFA, damage to plant",Setaria faberi (SETFA) [8],100
same,"PRE Application ECHCG, damage to plant",[9],100
same,"PRE Application AMARE, damage to plant",[10],100

# Reference: patent US8461083B2, “Herbicidal compounds” (Syngenta Limited, priority 2008, dated 2013)
